In patent US8883782B2, “Spiro-tetracyclic ring compounds as beta-secretase modulators and methods of use” (Amgen Inc., priority 2010, dated 2014):
pIC50: −log10 of the molar value. Read-outs that look alike come from different tables or passages of the source.

Assays:
[1] = molecular target: Beta Secretase enzyme (BACE) (Homo sapiens, UniProt P56817); assay: In vitro enzymatic BACE FRET (fluorescence resonance energy transfer) assay; assay type: biochemical; conditions: for pIC50: average IC50, enzyme assay, read-out: BACE 1 FRET assay
Chain of Beta Secretase enzyme (BACE) (P56817 46-501, species assumed): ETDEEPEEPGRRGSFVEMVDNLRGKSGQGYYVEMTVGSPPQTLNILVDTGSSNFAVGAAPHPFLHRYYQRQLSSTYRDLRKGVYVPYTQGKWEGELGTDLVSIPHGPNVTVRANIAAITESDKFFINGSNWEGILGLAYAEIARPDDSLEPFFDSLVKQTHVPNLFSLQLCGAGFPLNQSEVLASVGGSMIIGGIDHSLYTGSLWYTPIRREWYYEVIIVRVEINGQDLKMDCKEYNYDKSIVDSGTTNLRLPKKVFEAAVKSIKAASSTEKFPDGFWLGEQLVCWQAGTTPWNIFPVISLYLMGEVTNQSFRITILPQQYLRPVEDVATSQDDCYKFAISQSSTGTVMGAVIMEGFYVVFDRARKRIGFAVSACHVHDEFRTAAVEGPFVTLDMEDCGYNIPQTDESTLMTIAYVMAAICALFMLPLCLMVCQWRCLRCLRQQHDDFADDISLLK
In short: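 Acetate buffer (0.05 M, pH 4.2), 10% DMSO final, 100 uM nonionic detergent genapol. Substrate addition (50 nM FRET peptide) initiates; one-hour incubation; Tris raises pH to neutrality before fluorescence measurement.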

[2] = tested on: Aβ40 in conditioned medium of cells stably expressing Amyloid Precursor Protein (APP); assay: In vitro BACE cell-based assay (Aβ40 in conditioned medium, sandwich ELISA); conditions: for pIC50: read-out: HEK cell assay
Protocol: In Vitro BACE Cell-Based Assay
The cell-based assay measures inhibition or reduction of Aβ40 in conditioned medium of test compound treated cells expressing amyloid precursor protein.
Cells stably expressing Amyloid Precursor Protein (APP) were plated at a density of 40K cells/well in 96 well plates (Costar). The cells were cultivated for 24 hours at 37° C. and 5% CO2 in DMEM supplemented with 10% FBS. The test compounds were then added to cells in 10-point dose response concentrations with the starting concentration being either 100 μM or 10 μM. The compounds were diluted from stock solutions in DMSO and the final DMSO concentration of the test compounds on cells was 0.1%. […] The IC50 of the compound was calculated from the percent of control or percent inhibition of Aβ 40 as a function of the concentration of the test compound.
The sandwich ELISA to detect Aβ 40 was performed in 96 well microtiter plates, which were pre-treated with goat anti-rabbit IgG (Pierce). The capture and detecting antibody pair that were used to detect Aβ 40 from cell supernatants were affinity purified pAb40 (Biosource) and biotinylated 6E10 (Signet Labs Inc.), respectively. The optimal concentration for the pAb40 antibody was 3 μg/ml in Superblock/TBS (Pierce) that was supplemented with 0.05% Tween 20 (Sigma).
Cellular supernatants were incubated with the capture antibody for 3 h at 4° C., followed by 3 wash steps in TBS-tween (0.05%). The detecting antibody incubation was for 2 h at 4° C., again followed by the wash steps as described previously. The final readout of the ELISA is Time-Resolved Fluorescence (counts per minute) using Delfia reagents Streptavidin-Europium and Enhancement solutions (Perkin Elmer) and the Victor 2 multilabel counter (Perkin Elmer).

[3] = Homo sapiens, HEK293, average IC50, HEK cells
[4] = Homo sapiens, HEK293, average IC50

| Molecule | pIC50 [1] | pIC50 [2, 3] | pIC50 [2, 4] | other results |
| --- | --- | --- | --- | --- |
| NC1=NC2(CO1)c1cc(-c3cccnc3F)ccc1Oc1c(F)cc(C3=CCOCC3)nc12 (centres unmarked) [Example 105, 2-(3,6-dihydro-2H-pyran-4-yl)-4-fluoro-8-(2-fluoropyridin-3-yl)-5′H-spiro[chromeno[3,2-b]pyridine-10,4′-oxazol]-2′-amine] | 8.46 | 7.84 | – | – |
| N#Cc1ccncc1-c1ccc2c(c1)[C@@]1(COC(N)=N1)c1cc(C3=CCOCC3)ncc1O2 [Example 656, 3-((5S)-2′-amino-3-(3,6-dihydro-2H-pyran-4-yl)spiro[chromeno[2,3-c]pyridine-5,4′-[1,3]oxazol]-7-yl)-4-pyridinecarbonitrile] | 7.98 | 7.18 | – | – |
| CC1(C)CC(c2cnc3c(c2)[C@@]2(COC(N)=N2)c2c(ccc(-c4cncnc4)c2F)O3)=CCO1 [Example 355, (5S)-3-(2,2-dimethyl-3,6-dihydro-2H-pyran-4-yl)-6-fluoro-7-(5-pyrimidinyl)spiro[chromeno[2,3-b]pyridine-5,4′-[1,3]oxazol]-2′-amine] | 6.39 | – | 5.89 | – |
| NC1=N[C@@]2(CO1)c1cc(-c3cccnc3F)ccc1Oc1ncc(N3CCC(F)(F)CC3)cc12 [Example 478, (5S)-3-(4,4-difluoro-1-piperidinyl)-7-(2-fluoro-3-pyridinyl)spiro[chromeno[2,3-b]pyridine-5,4′-[1,3]oxazol]-2′-amine] | 8.68 | 7.84 | – | – |
| COc1cc(F)c2c(c1)[C@@]1(CSC(N)=N1)c1cc(-c3cnccn3)ccc1O2 [Example 222, (4R)-4′-fluoro-2′-methoxy-7′-(2-pyrazinyl)spiro[1,3-thiazole-4,9′-xanthen]-2-amine] | 7.38 | – | 5.97 | – |
| CC1(COc2cc(F)c3c(c2)[C@@]2(CSC(N)=N2)c2cc(-c4cccnc4)c(F)cc2O3)COC1 [Example 877, (4R)-3′,5′-difluoro-7′-((3-methyl-3-oxetanyl)methoxy)-2′-(3-pyridinyl)spiro[1,3-thiazole-4,9′-xanthen]-2-amine] | 6.74 | 5.52 | – | – |
| CC#Cc1cnc(F)c(-c2ccc3c(c2)[C@@]2(COC(N)=N2)c2cc(-c4cnn(C)c4)cnc2O3)c1 [Example 954, (5S)-7-(2-fluoro-5-(1-propyn-1-yl)-3-pyridinyl)-3-(1-methyl-1H-pyrazol-4-yl)spiro[chromeno[2,3-b]pyridine-5,4′-[1,3]oxazol]-2′-amine] | 9.52 | 8.52 | – | – |
| NC1=N[C@@]2(CO1)c1cc(-c3ccc(F)nc3)ccc1Oc1c(F)cc(OC[C@H]3CC3(F)F)cc12 [Example 261, (4S)-2′-(((1R)-2,2-difluorocyclopropyl)methoxy)-4′-fluoro-7′-(6-fluoro-3-pyridinyl)spiro[1,3-oxazole-4,9′-xanthen]-2-amine] | 8.17 | – | 7.14 | – |
| CC#Cc1cncc(-c2ccc3c(c2)[C@@]2(COC(N)=N2)c2cc(C4=CCOCC4)cc(F)c2O3)c1 [Example 946, (4S)-2′-(3,6-dihydro-2H-pyran-4-yl)-4′-fluoro-7′-(5-(1-propyn-1-yl)-3-pyridinyl)spiro[1,3-oxazole-4,9′-xanthen]-2-amine] | 9.52 | 8.40 | – | – |
| NC1=N[C@@]2(CO1)c1cc(-c3cccnc3F)ccc1Oc1cc(F)c(C3=CCOCC3)cc12 [Example 320, (4S)-2′-(3,6-dihydro-2H-pyran-4-yl)-3′-fluoro-7′-(2-fluoro-3-pyridinyl)spiro[1,3-oxazole-4,9′-xanthen]-2-amine] | 8.18 | – | 7.22 | – |
| CC1(C)C[C@H](c2cnc3c(c2)[C@]2(COC(N)=N2)c2cc(-c4cccc(Cl)c4)ccc2O3)CCO1 [Example 473, (5S)-7-(3-chlorophenyl)-3-((4R)-2,2-dimethyltetrahydro-2H-pyran-4-yl)spiro[chromeno[2,3-b]pyridine-5,4′-[1,3]oxazol]-2′-amine] | 8.68 | 7.81 | – | – |
| CC1(C#Cc2cnc3c(c2)[C@]2(CSC(N)=N2)c2cc(-c4ccc(F)c(C#N)c4)ccc2O3)COC1 [Example 785, 5-((5S)-2′-amino-3-((3-methyl-3-oxetanyl)ethynyl)spiro[chromeno[2,3-b]pyridine-5,4′-[1,3]thiazol]-7-yl)-2-fluorobenzonitrile] | 8.80 | – | 7.89 | – |
| COc1cncc(-c2ccc3c(c2)[C@@]2(COC(N)=N2)c2cc(OCC4(C)COC4)c(F)cc2O3)c1 [Example 329, (4S)-3′-fluoro-7′-(5-methoxy-3-pyridinyl)-2′-((3-methyl-3-oxetanyl)methoxy)spiro[1,3-oxazole-4,9′-xanthen]-2-amine] | 8.05 | – | 7.28 | – |
| Cc1ccnc(Oc2ccc3c(c2)[C@@]2(COC(N)=N2)c2cc(N4CCOCC4)cc(F)c2O3)c1 [Example 1059, (4S)-4′-fluoro-7′-((4-methyl-2-pyridinyl)oxy)-2′-(4-morpholinyl)spiro[1,3-oxazole-4,9′-xanthen]-2-amine] | 7.47 | – | 6.22 | – |
| NC1=N[C@@]2(CO1)c1cc(-c3cccnc3F)ccc1Oc1cnc(-c3ccnc(C(F)(F)F)c3)cc12 [Example 545, (5S)-7-(2-fluoro-3-pyridinyl)-3-(2-(trifluoromethyl)-4-pyridinyl)spiro[chromeno[2,3-c]pyridine-5,4′-[1,3]oxazol]-2′-amine] | 8.25 | 6.39 | – | – |
| NC1=N[C@@]2(CS1)c1cc(-c3cccnc3)ccc1Oc1c2cc(-c2ccnc(F)c2)nc1F [Example 1030, (5S)-1-fluoro-3-(2-fluoro-4-pyridinyl)-7-(3-pyridinyl)spiro[chromeno[2,3-c]pyridine-5,4′-[1,3]thiazol]-2′-amine] | 9.70 | – | 8.30 | – |
| (4S)-2′-(((1R)-2,2-difluorocyclopropyl)methoxy)-4′-fluoro-7′-(2-fluoro-3-pyridinyl)spiro[1,3-thiazole-4,9′-xanthen]-2-amine, (4S)-2′-(((1S)-2,2-difluorocyclopropyl)methoxy)-4′-fluoro-7′-(2-fluoro-3-pyridinyl)spiro[1,3-thiazole-4,9′-xanthen]-2-amine [Example 1080] | 9.30 | – | – | pIC50 ([2]; average IC50): 7.33 |
| NC1=N[C@]2(CO1)c1cc(-c3cccnc3F)c(F)cc1Oc1c(F)cc(N3CCOCC3)cc12 [Example 870, (4R)-3′,5′-difluoro-2′-(2-fluoro-3-pyridinyl)-7′-(4-morpholinyl)spiro[1,3-oxazole-4,9′-xanthen]-2-amine] | 6.80 | 5.18 | – | – |
| Cn1cc(-c2cc(F)c3c(c2)[C@]2(COC(N)=N2)c2cc(-c4cccc(C#N)c4)ccc2O3)cn1 [Example 563, 3-((4S)-2-amino-5′-fluoro-7′-(1-methyl-1H-pyrazol-4-yl)spiro[1,3-oxazole-4,9′-xanthen]-2′-yl)benzonitrile] | 8.89 | 7.91 | – | – |
| Cc1cc(-c2cc3c(c(F)n2)Oc2ccc(-c4cccnc4F)cc2[C@@]32COC(N)=N2)on1 [Example 851, (5S)-1-fluoro-7-(2-fluoro-3-pyridinyl)-3-(3-methyl-5-isoxazolyl)spiro[chromeno[2,3-c]pyridine-5,4′-[1,3]oxazol]-2′-amine] | 9.10 | 8.10 | – | – |
| NC1=N[C@]2(CS1)c1cc(-c3cccnc3)c(F)cc1Oc1c(F)cc(C3=CCOCC3)cc12 [Example 882, (4R)-7′-(3,6-dihydro-2H-pyran-4-yl)-3′,5′-difluoro-2′-(3-pyridinyl)spiro[1,3-thiazole-4,9′-xanthen]-2-amine] | 6.21 | ≤ 5.00 | – | – |
| CC1(COc2cc(F)c3c(c2)[C@]2(CSC(N)=N2)c2cc(-c4cccnc4)c(F)cc2O3)COC1 [Example 878, (4S)-3′,5′-difluoro-7′-((3-methyl-3-oxetanyl)methoxy)-2′-(3-pyridinyl)spiro[1,3-thiazole-4,9′-xanthen]-2-amine] | 9.40 | 8.10 | – | – |
| NC1=N[C@]2(CS1)c1cc(-c3cccnc3)ccc1Oc1ncc(N3CCOCC3)cc12 [Example 601, (5R)-3-(4-morpholinyl)-7-(3-pyridinyl)spiro[chromeno[2,3-b]pyridine-5,4′-[1,3]thiazol]-2′-amine] | 5.64 | 6.14 | – | – |
| NC1=N[C@@]2(CO1)c1cc(-c3cnccc3F)ccc1Oc1cnc(C3=CCOCC3)cc12 [Example 391, (5S)-3-(3,6-dihydro-2H-pyran-4-yl)-7-(4-fluoro-3-pyridinyl)spiro[chromeno[2,3-c]pyridine-5,4′-[1,3]oxazol]-2′-amine] | – | – | – | IC50 ([1]; BACE 1 FRET assay (uM)): 0.0007 µM; IC50 ([2]; Homo sapiens, HEK293, read-out: HEK cell assay (uM), average IC50, HEK cells): 0.0058 µM |
| NC1=N[C@@]2(CO1)c1cc(-c3cncc(F)c3)c(F)cc1Oc1ncc(C3=CCOCC3)cc12 [Example 647, (5S)-3-(3,6-dihydro-2H-pyran-4-yl)-8-fluoro-7-(5-fluoro-3-pyridinyl)spiro[chromeno[2,3-b]pyridine-5,4-[1,3]oxazol]-2′-amine] | 8.68 | 7.80 | – | – |
